“And” between values parts separate entries of the source, which are not always exact repeats. Equal values may be shown once.
Key:
[1] = target: E. coli IP kinase (ychB, SEQ ID NO:6), partially purified (Escherichia coli, UniProt P62615); assay: Kinase assay, partially purified recombinant E. coli IP kinase; type: biochemical; conditions: for Cofactor / phosphate donor requirement of kinase activity: IP as substrate, partially purified E. coli kinase; for Phosphorylating activity with substrate, in words, partially purified E. coli kinase: partially purified protein
[2] = target: T1, recombinant peppermint kinase (isopentenyl monophosphate kinase, SEQ ID NO:2) (Mentha piperita, UniProt P56848); assay: Kinase assay, recombinant peppermint IP kinase, crude extracts of transformed E. coli; type: biochemical, peppermint (Mentha x piperita); conditions: crude extract, standard assay conditions
T1 sequence (P56848 98-405): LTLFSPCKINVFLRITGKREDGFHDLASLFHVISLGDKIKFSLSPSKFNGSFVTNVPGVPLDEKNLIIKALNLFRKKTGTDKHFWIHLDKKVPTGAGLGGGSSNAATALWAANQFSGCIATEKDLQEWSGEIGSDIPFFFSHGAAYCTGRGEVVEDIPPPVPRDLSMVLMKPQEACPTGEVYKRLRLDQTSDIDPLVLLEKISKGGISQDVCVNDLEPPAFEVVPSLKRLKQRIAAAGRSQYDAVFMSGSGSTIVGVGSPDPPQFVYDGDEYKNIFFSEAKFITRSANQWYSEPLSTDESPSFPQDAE

[3] = target: E. coli IP kinase (ychB, SEQ ID NO:6) (Escherichia coli, UniProt P62615); assay: Kinase assay, recombinant E. coli IP kinase (induced), crude extracts; type: biochemical; conditions: crude extract, induced with 0.02% arabinose; rates are minimums
[4] = test system: isolated peppermint oil gland secretory cells; assay: Feeding studies with isolated peppermint oil gland secretory cells, incorporation into terpenoids; type: cell-based, peppermint (Mentha x piperita L. cv. Black Mitcham); conditions: radiolabeled precursor, 23° C., 2 h; average of two experiments; includes geraniol and farnesol
Description: Isolation of and Feeding Studies with Peppermint Oil Gland Secretory Cells: Leaves (15-20 g; <10 mm in length) were excised from peppermint plants (Mentha x piperita L. cv. Black Mitcham) and the oil gland secretory cells were isolated by the glass bead abrasion method (McCaskill, D. & Croteau, R., Planta, 197:49-56 [1995]). Following isolation, the secretory cells were washed with 25 mM Tris/HCl buffer (pH 7.3) containing 200 mM sorbitol, 10 mM sucrose, 5 mM MgCl2, 10 mM KCl, 1 mM ethyleneglycol bis(β-aminoethyl ether), 8.5 mM Na2 HPO4, and 0.1 mM Na4 P2 O7, and then suspended in the same buffer supplemented with 2 mM ATP, 0.1 mM NADPH, 0.1 mM NAD^+, 5 mM phosphoenol pyruvate, and 5 mM glucose-6-phosphate. Cell density was determined using a hemocytometer and was adjusted to 1-2×10^5 cellular disks (each containing eight secretory cells) per milliliter suspension. Aliquots (1-1.5 ml) were transferred to 15 ml screw-cap glass vials, and the suspended cells were aerated and incubated at 23° C. for 2 h. At the end of the incubation period, the suspension was extracted three times with 1 ml diethyl ether. The combined organic extract was washed with 1 ml of 1 M Na2 CO3 and dried over Na2 SO4. An aliquot was removed for liquid scintillation counting and, to the remainder, authentic standards (10-50 μg each) of isopentenol, dimethylallyl alcohol, geraniol, farnesol, limonene, menthone, menthol, pulegone, humulene, and caryophyllene were added. These extracts were then slowly concentrated on ice under a gentle stream of N2 to ~200 μl, and were then transferred to conical glass vials and further concentrated to 5-10 μl at 20° C. in preparation for chromatographic analysis.
Radio-GLC Analysis of Peppermint Isoprenoids: Radio-GC was performed according to a published method (Croteau, R. & Satterwhite, D. M. J. Chromatog. 500:349-354 [1990]) with several modifications; 0.25 mm i.d.×30 m AT 1000 fused silica column with 0.2 μm film thickness (Alltech); helium carrier gas at 3-6 ml/min^-1; temperature program from 70 to 200° C. at 5° C./min^-1; injector at 200° C.; thermal conductivity detector at 220° C. and 140 mA; propane quench gas at 10-15 ml/min^-1. The relative peak area corresponding to each biosynthetic product was converted to dpm as a fraction of the total radioactivity determined by liquid scintillation counting prior to concentration. The absolute amount of each component formed was then calculated based on the specific activity of the corresponding radiolabeled substrate.

[5] = test system: E. coli background (repressed, 0.02% glucose); assay: Kinase assay, E. coli background (repressed) controls; type: biochemical; conditions: crude extract, transgene repressed with 0.02% glucose; rates are minimums

E. coli IP kinase (ychB, SEQ ID NO:6), partially purified, sequence (P62615 whole entry): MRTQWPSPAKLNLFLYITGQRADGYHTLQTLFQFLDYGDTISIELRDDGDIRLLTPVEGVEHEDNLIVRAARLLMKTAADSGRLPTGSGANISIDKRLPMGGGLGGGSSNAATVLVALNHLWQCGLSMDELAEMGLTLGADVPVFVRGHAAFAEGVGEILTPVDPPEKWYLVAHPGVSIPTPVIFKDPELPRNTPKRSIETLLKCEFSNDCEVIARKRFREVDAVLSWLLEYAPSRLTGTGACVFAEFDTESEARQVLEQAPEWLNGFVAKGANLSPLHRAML
E. coli IP kinase (ychB, SEQ ID NO:6), sequence (P62615 whole entry): as above

Structure (SMILES)	Cofactor / phosphate donor requirement of kinase activity [1]	Total Terpenoids (C10 + C15), rate of incorporation into total monoterpenoids and sesquiterpenoids [4]	also measured
Nc1ncnc2c1ncn2[C@@H]1O[C@H](COP(=O)(O)OP(=O)(O)OP(=O)(O)O)[C@@H](O)[C@H]1O [ATP]	dependent upon the presence	–	–
Nc1ccn([C@@H]2O[C@H](COP(=O)(O)OP(=O)(O)OP(=O)(O)O)[C@@H](O)[C@H]2O)c(=O)n1 [CTP]	did not serve as alternate phosphate donors	–	–
CC(C)=CCO [DMA, dimethylallyl alcohol]	–	negligible	Kinase activity with substrate, recombinant peppermint kinase [2]: ≤ 0.01 pmol (s g protein)^-1; Rate (kinase activity with substrate), E. coli (induced) [3]: < 0.01 pmol/s · g protein; Rate (kinase activity with substrate), E. coli (partially purified) ([1]; Ni2+ affinity-purified enzyme, averages with standard deviation): 11 ± 5 pmol/s · g protein; Phosphorylating activity with substrate, in words, partially purified E. coli kinase [1]: readily catalyzed the conversion; Rate (kinase activity with substrate), E. coli (repressed) [5]: < 0.01 pmol/s · g protein
CC(C)=CCOP(=O)(O)O [DMAP, dimethylallyl monophosphate]	–	6 pmol (h 10^5 cell clusters)^-1 and < 6 pmol (h 10^5 cell clusters)^-1	–
CC(C)=CCOP(=O)(O)OP(=O)(O)O [DMAPP, dimethylallyl diphosphate]	–	4 pmol (h 10^5 cell clusters)^-1 and < 6 pmol (h 10^5 cell clusters)^-1	–
Nc1nc2c(ncn2[C@@H]2O[C@H](COP(=O)(O)OP(=O)(O)OP(=O)(O)O)[C@@H](O)[C@H]2O)c(=O)[nH]1 [GTP]	did not serve as alternate phosphate donors	–	–
C=C(C)CCOP(=O)(O)O [IP, isopentenyl monophosphate]	–	43 pmol (h 10^5 cell clusters)^-1	–
C=C(C)CCOP(=O)(O)OP(=O)(O)O [IPP, isopentenyl diphosphate]	–	561 pmol (h 10^5 cell clusters)^-1	–
C=C(C)CCO [ISO, isopentenol]	–	304 pmol (h 10^5 cell clusters)^-1	–
C[C@](O)(CO)[C@H](O)COP(=O)(O)O [MEP, 2-C-methylerythritol-4-phosphate]	–	–	Kinase activity with substrate, recombinant peppermint kinase [2]: less than 0.2 pmol (s g protein)^-1; Rate (kinase activity with substrate), E. coli (induced) [3]: < 0.2 pmol/s · g protein; Phosphorylating activity with substrate, in words, partially purified E. coli kinase [1]: no phosphorylating activity was detectable; Rate (kinase activity with substrate), E. coli (repressed) [5]: < 0.2 pmol/s · g protein
[Cl-].[Cl-].[Mg+2] [MgCl2]	dependent upon the presence	–	–
O=c1ccn([C@@H]2O[C@H](COP(=O)(O)OP(=O)(O)OP(=O)(O)O)[C@@H](O)[C@H]2O)c(=O)[nH]1 [UTP]	did not serve as alternate phosphate donors	–	–

Source: patent US6235514A, “Nucleic acid molecules encoding isopentenyl monophosphate kinase, and methods of use” (Washington State University Research Foundation, priority 1999, dated 2001)
